Reference: US8598179B2, “Pyrazole-carboxamide derivatives as P2Y12 antagonists” (Sanofi, priority 2007, dated 2013)

System: human platelet rich plasma (ADP-induced platelet aggregation)
Experiment: Inhibition of human platelet aggregation, "Born"-method (single cuvettes)
Assay type: cell-based
Details: 0.1 h, aggregation induced by ADP, single use cuvettes, platelet aggregation profiler, 6 minutes at 37° C.
Protocol: Inhibition of Human Platelet Aggregation
Alternatively to a binding assay which measures a compound's ability to bind to the P2Y12 receptor, the effect on cellular function was also determined. This ability of the compound was evaluated in two platelet aggregation assays: in 96-well plates and with the “Born”-method using single cuvettes.
Whole blood was collected from healthy volunteers using 20 ml syringes containing 2 ml of buffered Citrate. The anticoagulated whole blood was transferred into 15 ml polypropylene conical tubes (10 ml per tube). The tubes were centrifuged for 15 minutes at 340×g at RT without using the centrifuge brake. This procedure leads to a pellet of cellular components and a supernatant of platelet rich plasma (PRP). The PRP layer was collected from each tube and pooled for each donor. To avoid carry over of cellular components following centrifugation, approximately 5 ml of PRP was left in the tube. The platelet concentration was determined using a Coulter Counter.
The 15 ml tubes containing the pellet of cellular components were centrifuged again for 10 minutes at 1940×g. This pelleted out most particulate blood constituents remaining, leaving a layer of Platelet Poor Plasma (PPP). The PPP was collected for each donor. The PRP layer, previously set aside, was diluted with PPP to a final concentration of approximately 3×E8 platelets/ml with the PPP.
The human platelet aggregation assay is performed in single use cuvettes using the platelet aggregation profiler (PAP-4 or -8, Bio/Data corporation).
In the assay cuvette 4 μl of test compound at 100× final concentration in DMSO is mixed with 392 μl fresh PRP and incubated for 2 minutes at 37° C. with 1.200 rpm stirring. Following that incubation period, 4 μl of 250 μM ADP is added to the reaction mix. […] After that aggregation is measured over 6 minutes at 37° C. with 1.200 rpm stirring. Results of the assay are expressed as % inhibition, and are calculated using maximum aggregation (Tmax) or area under curve (AUC) of the absorbance over 6 minutes. […]

`CCOC(=O)N1CCN(C(=O)[C@H](CCC(=O)O)NC(=O)c2cc(OCC(=O)C(C)(C)C)n(-c3ccccc3)n2)CC1` [Example 80, 4-((S)-4-Carboxy-2-{[5-(3,3-dimethyl-2-oxo-butoxy)-1-phenyl-1H-pyrazole-3-carbonyl]-amino}-butyryl)-piperazine-1-carboxylic acid ethyl ester] and `CCOC(=O)COc1cc(C(=O)N[C@@H](CCC(=O)O)C(=O)N2CCN(C(=O)OCC)CC2)nn1-c1ccccc1` [Example 5, 4-{(S)-4-Carboxy-2-[(5-ethoxycarbonylmethoxy-1-phenyl-1H-pyrazole-3-carbonyl)-amino]-butyryl}-piperazine-1-carboxylic acid ethyl ester] are within 1.5-fold of each other in IC50: 2460 nM for the first, 2480 nM for the second.

With `CCOC(=O)N1CCN(C(=O)[C@H](CCC(=O)O)NC(=O)c2cc(OC3(C(=O)OCC)CCC3)n(-c3ccccc3)n2)CC1` [Example 1, 4-((S)-4-Carboxy-2-{[5-(1-ethoxycarbonyl-cyclobutoxy)-1-phenyl-1H-pyrazole-3-carbonyl]-amino}-butyryl)-piperazine-1-carboxylic acid ethyl ester] the IC50 was 2930 nM.
